What was measured:
[1] = test system: de novo hepatic cholesterol synthesis; experiment: Acute rat cholesterol synthesis assay (de novo hepatic cholesterol synthesis from exogenously administered 14C-acetate); format: in vivo; settings: female rats, dose and route not stated
Protocol: (b) Acute rat cholesterol synthesis assay.
This is an acute in vivo test in the rat to measure de novo hepatic cholesterol synthesis from exogenously administered ^14 C-acetate.
Female rats (35-55 g) are housed in reverse lighting conditions (red light from 0200 h-1400 h) for a period of about 2 weeks prior to test. Animals are allowed free access to chow and drinking water throughout this period. At test, animals should weigh 125-150 g.
Test compounds may be administered by oral gavage, dissolved or suspended in 0.5% polysorbate, or by ip or iv dosing. Control animals receive vehicle alone. After 1 hour the rats are injected ip with 25 μCi [2-^14 C]-acetate (NEN DUPONT. specific activity, 45-60 mCi/mmol NEC-085H, or AMERSHAM specific activity, 50-60 mCi/mmol CFA 14) in a volume of 0.25 ml saline (100 μCi/ml). After a further hour, rats are terminally anaesthetised with halothane and a blood sample obtained from the abdominal vena cava.
1 ml of plasma is lyophilised and then saponified in 2 ml ethanolic KOH (1 part 33% KOH, 9 parts ethanol) at 75° C. for 2 hours. After addition of an equal quantity of water, non-saponifiable lipids are extracted with two 5 ml volumes of hexane. The hexane extracts are evaporated to dryness and the residues dissolved in ethanol to determine cholesterol specific radioactivity. ED50 values can be determined in the standard way.

Squalene synthase = experiment: Inhibition of squalene synthase (squalene formation from tritiated farnesyl pyrophosphate, rat liver microsomal protein); format: biochemical; settings: 2.5 μM, substrate 20 μM, 15 minutes, 37° C.
Protocol: (a) Inhibition of Squalene synthase
In this test, the ability of a compound to prevent the formation of squalene from a radioactive substrate (tritiated farnesyl pyrophosphate) is assessed.
The test compound is incubated at a concentration of 25 micromolar in 200 μl of a buffered solution containing potassium phosphate (50 mM), MgCl2 (4.95 mM), KF (9.9 mM), NADPH (0.9 mM) and rat liver microsomal protein (20 μg). Rat liver microsomes are prepared by the method described in published European Patent Application No. 324,421 and stored in liquid nitrogen prior to assay. Assay vials are kept at 37° C. throughout the incubation.
The reaction is started with the addition of the substrate (1-[^3 H]-farnesyl pyrophosphate), final concentration 20 μM, and stopped after 15 minutes reaction time with the addition of 50 μl of 4% KOH. The reaction products are separated from unreacted substrate after application to a C-18 octadecyl 1 ccBond column (Analytichem Int product No. 617101). An aqueous fraction is eluted with 250 μl of 0.1M KOH. Squalene is then eluted with 1.0 ml 10% ethylacetate in hexane and radioactivity determined. The difference in radioactivity in the presence and absence of the test compound is used to determine the level of inhibition. […] The IC50 can then be determined from a plot of percentage inhibition against concentration of test compound.

CCCCOc1ccc(C#CC2(O)CN3CCC2CC3)cn1 (centres unmarked) [Example 1, 3-[2-(6-butoxy-3-pyridyl)ethynyl]quinuclidin-3-ol]
decrease in the rate of cholesterol biosynthesis [1]: 71% | inhibition (squalene synthase) (Squalene synthase): about 99%

From US5731323A, “Quinuclidine derivatives as squalene synthase inhibitors” (Zeneca Limited, priority 1992, dated 1998)
